According to PubChem BioAssay (NCI):
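Growth conditions: 96-well plates. Treatment: test compound, 48 hours, 5 concentrations. Analysis: linear interpolation between bracketing concentrations; unreached endpoints set to highest concentration. The concentration for 50% growth inhibition is given as GI50. At the TGI there is no net growth.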

Legend:
Assay in all cases: NCI-60 cell line screen, 48 h
UACC-62 melanoma = test system: UACC-62 melanoma
SK-MEL-5 melanoma = test system: SK-MEL-5 melanoma
SN12C renal = test system: SN12C renal
CAKI-1 renal = test system: CAKI-1 renal
CCRF-CEM leukemia = test system: CCRF-CEM leukemia
NCI-H23 lung = test system: NCI-H23 lung
HL-60(TB) leukemia = test system: HL-60(TB) leukemia
A549 NSCLC = test system: A549 NSCLC
UO-31 renal = test system: UO-31 renal
SF-295 CNS = test system: SF-295 CNS
HCT-15 colon = test system: HCT-15 colon
M14 melanoma = test system: M14 melanoma
RPMI-8226 leukemia = test system: RPMI-8226 leukemia
HCT-116 colon = test system: HCT-116 colon
NCI/ADR-RES ovarian = test system: NCI/ADR-RES ovarian
HT29 colon = test system: HT29 colon
HS 578T breast = test system: HS 578T breast
RXF 393 renal = test system: RXF 393 renal
EKVX NSCLC = test system: EKVX NSCLC
U251 CNS = test system: U251 CNS
OVCAR-3 ovarian = test system: OVCAR-3 ovarian
OVCAR-4 ovarian = test system: OVCAR-4 ovarian
SK-OV-3 ovarian = test system: SK-OV-3 ovarian
OVCAR-8 ovarian = test system: OVCAR-8 ovarian
TK-10 renal = test system: TK-10 renal
PC-3 prostate = test system: PC-3 prostate
SR leukemia = test system: SR leukemia
NCI-H226 lung = test system: NCI-H226 lung
ACHN renal = test system: ACHN renal
MDA-MB-435 = test system: MDA-MB-435
OVCAR-5 ovarian = test system: OVCAR-5 ovarian
NCI-H460 lung = test system: NCI-H460 lung
MOLT-4 leukemia = test system: MOLT-4 leukemia
HOP-62 NSCLC = test system: HOP-62 NSCLC
LOX IMVI melanoma = test system: LOX IMVI melanoma
SW-620 colon = test system: SW-620 colon
SF-268 CNS = test system: SF-268 CNS
K-562 leukemia = test system: K-562 leukemia
IGROV1 ovarian = test system: IGROV1 ovarian
SF-539 CNS = test system: SF-539 CNS
DU-145 prostate = test system: DU-145 prostate
UACC-257 melanoma = test system: UACC-257 melanoma
A498 renal = test system: A498 renal
SK-MEL-28 melanoma = test system: SK-MEL-28 melanoma
HCC-2998 colon = test system: HCC-2998 colon
SNB-75 CNS = test system: SNB-75 CNS
NCI-H522 lung = test system: NCI-H522 lung
HOP-92 NSCLC = test system: HOP-92 NSCLC
MDA-MB-231 breast = test system: MDA-MB-231 breast
KM12 colon = test system: KM12 colon
SNB-19 CNS = test system: SNB-19 CNS
COLO 205 colon = test system: COLO 205 colon
MALME-3M melanoma = test system: MALME-3M melanoma
786-0 renal = test system: 786-0 renal
BT-549 breast = test system: BT-549 breast
T-47D breast = test system: T-47D breast
MCF7 breast = test system: MCF7 breast
SK-MEL-2 melanoma = test system: SK-MEL-2 melanoma

Compound: C=C1C(=O)O[C@H]2[C@H]1CC/C(COC(=O)NCc1ccc(OC)cc1)=C\CC[C@@]1(C)O[C@@H]21
- GI50 (UACC-62 melanoma): 1590 nM
- TGI (UACC-62 melanoma): 3160 nM
- GI50 (SK-MEL-5 melanoma): 2850 nM
- TGI (SK-MEL-5 melanoma): 17200 nM
- GI50 (SN12C renal): 3400 nM
- TGI (SN12C renal): 12400 nM
- GI50 (CAKI-1 renal): 628 nM
- TGI (CAKI-1 renal): 2080 nM
- GI50 (CCRF-CEM leukemia): 378 nM
- TGI (CCRF-CEM leukemia): 2100 nM
- GI50 (NCI-H23 lung): 1450 nM
- TGI (NCI-H23 lung): 7960 nM
- GI50 (HL-60(TB) leukemia): 813 nM
- TGI (HL-60(TB) leukemia): 2100 nM
- GI50 (A549 NSCLC): 4280 nM
- TGI (A549 NSCLC): 19200 nM
- GI50 (UO-31 renal): 501 nM
- TGI (UO-31 renal): 991 nM
- GI50 (SF-295 CNS): 11100 nM
- TGI (SF-295 CNS): 25000 nM
- GI50 (HCT-15 colon): 570 nM
- TGI (HCT-15 colon): 1870 nM
- GI50 (M14 melanoma): 520 nM
- TGI (M14 melanoma): 1140 nM
- GI50 (RPMI-8226 leukemia): 683 nM
- TGI (RPMI-8226 leukemia): 2300 nM
- GI50 (HCT-116 colon): 471 nM
- TGI (HCT-116 colon): 1020 nM
- GI50 (NCI/ADR-RES ovarian): 2690 nM
- TGI (NCI/ADR-RES ovarian): 21600 nM
- GI50 (HT29 colon): 835 nM
- TGI (HT29 colon): 2780 nM
- GI50 (HS 578T breast): 3100 nM
- TGI (HS 578T breast): 30700 nM
- GI50 (RXF 393 renal): 509 nM
- TGI (RXF 393 renal): 1070 nM
- GI50 (EKVX NSCLC): 3930 nM
- TGI (EKVX NSCLC): 17400 nM
- GI50 (U251 CNS): 2650 nM
- TGI (U251 CNS): 16200 nM
- GI50 (OVCAR-3 ovarian): 595 nM
- TGI (OVCAR-3 ovarian): 1530 nM
- GI50 (OVCAR-4 ovarian): 992 nM
- TGI (OVCAR-4 ovarian): 13500 nM
- GI50 (SK-OV-3 ovarian): 14600 nM
- TGI (SK-OV-3 ovarian): 29300 nM
- GI50 (OVCAR-8 ovarian): 1230 nM
- TGI (OVCAR-8 ovarian): 9270 nM
- GI50 (TK-10 renal): 359 nM
- TGI (TK-10 renal): 1510 nM
- GI50 (PC-3 prostate): 2610 nM
- TGI (PC-3 prostate): 14300 nM
- GI50 (SR leukemia): 656 nM
- TGI (SR leukemia): 3840 nM
- GI50 (NCI-H226 lung): 1100 nM
- TGI (NCI-H226 lung): 5010 nM
- GI50 (ACHN renal): 580 nM
- TGI (ACHN renal): 1490 nM
- GI50 (MDA-MB-435): 805 nM
- TGI (MDA-MB-435): 2620 nM
- GI50 (OVCAR-5 ovarian): 2160 nM
- TGI (OVCAR-5 ovarian): 8530 nM
- GI50 (NCI-H460 lung): 3160 nM
- TGI (NCI-H460 lung): 18200 nM
- GI50 (MOLT-4 leukemia): 843 nM
- TGI (MOLT-4 leukemia): 2310 nM
- GI50 (HOP-62 NSCLC): 7980 nM
- TGI (HOP-62 NSCLC): 24100 nM
- GI50 (LOX IMVI melanoma): 405 nM
- TGI (LOX IMVI melanoma): 1470 nM
- GI50 (SW-620 colon): 635 nM
- TGI (SW-620 colon): 1550 nM
- GI50 (SF-268 CNS): 1720 nM
- TGI (SF-268 CNS): 13400 nM
- GI50 (K-562 leukemia): 897 nM
- TGI (K-562 leukemia): 9080 nM
- GI50 (IGROV1 ovarian): 783 nM
- TGI (IGROV1 ovarian): 2790 nM
- GI50 (SF-539 CNS): 973 nM
- TGI (SF-539 CNS): 3650 nM
- GI50 (DU-145 prostate): 726 nM
- TGI (DU-145 prostate): 2950 nM
- GI50 (UACC-257 melanoma): 766 nM
- TGI (UACC-257 melanoma): 2550 nM
- GI50 (A498 renal): 2920 nM
- TGI (A498 renal): 20000 nM
- GI50 (SK-MEL-28 melanoma): 726 nM
- TGI (SK-MEL-28 melanoma): 1700 nM
- GI50 (HCC-2998 colon): 1750 nM
- TGI (HCC-2998 colon): 6670 nM
- GI50 (SNB-75 CNS): 1000 nM
- TGI (SNB-75 CNS): 15300 nM
- GI50 (NCI-H522 lung): 378 nM
- TGI (NCI-H522 lung): 1150 nM
- GI50 (HOP-92 NSCLC): 559 nM
- TGI (HOP-92 NSCLC): 1830 nM
- GI50 (MDA-MB-231 breast): 1170 nM
- TGI (MDA-MB-231 breast): 3960 nM
- GI50 (KM12 colon): 4750 nM
- TGI (KM12 colon): 20500 nM
- GI50 (SNB-19 CNS): 3010 nM
- TGI (SNB-19 CNS): 11000 nM
- GI50 (COLO 205 colon): 656 nM
- TGI (COLO 205 colon): 1550 nM
- GI50 (MALME-3M melanoma): 554 nM
- TGI (MALME-3M melanoma): 1290 nM
- GI50 (786-0 renal): 700 nM
- TGI (786-0 renal): 1670 nM
- GI50 (BT-549 breast): 696 nM
- TGI (BT-549 breast): 2070 nM
- GI50 (T-47D breast): 757 nM
- TGI (T-47D breast): 2910 nM
- GI50 (MCF7 breast): 1310 nM
- TGI (MCF7 breast): 5450 nM
- GI50 (SK-MEL-2 melanoma): 3040 nM
- TGI (SK-MEL-2 melanoma): 10400 nM
